This data set can be described thus: solubility of MGDN in water (temperature-dependent). Format: physicochemical. As to the method: MGDN has highly temperature-dependent solubility in water. For instance, only about 0.5% by weight of MGDN dissolves at 10° C. in water or an aqueous ammonium sulfate solution. At approx. 60° C., the solubility is still about 5% by weight. Above approx. 60° C., an emulsion of MGDN and its aqueous solution with more than 5% by weight of dissolved MGDN is present. No phase diagram of the water-MGDN system is known.
The MGDN concentration of the aqueous crude product mixture is generally from 3 to 50% by weight, preferably from 15 to 40% by weight, more preferably from 20 to 35% by weight. A content of dissolved MGDN of 1% by weight corresponds to a crystallization temperature of approx. 20° C., a content of dissolved MCDN of 5% by weight to a crystallization temperature of approx. 55° C. At 10° C., the water solubility of MGDN is still about 0.5% by weight.

Turning to `CC(C#N)N(CC#N)CC#N` (centres unmarked) [MGDN, methylglycinenitrile-N,N-diacetonitrile], the water solubility entry (at 10° C.) is listed as “about 0.5 % by weight”. Further, the solubility entry was “about 0.5 % by weight” (at 10° C. in water or an aqueous ammonium sulfate solution) and “about 5 % by weight” (at approx. 60° C., in water). Also, the “content of dissolved MGDN” value is, setting by setting: (corresponds to a crystallization temperature of approx. 20° C.) 1 % by weight; (corresponds to a crystallization temperature of approx. 55° C.) 5 % by weight.

For the origin of these results see US7754911B2, “Method for isolating methyl glycine nitrile-N,N-diacetonitriles from an aqueous crude mixture” (BASF Aktiengesellschaft, priority 2005, dated 2010).
